Assay results published in the NIST ThermoML archive (doi:10.1016/j.jct.2012.05.023).
± gives the expanded uncertainty stated by the source.

Tests used:
[1] = 101.3 kPa, Liquid; for speed of sound: Sing-around technique in a fixed-path interferometer; for mass density: Vibrating tube method
[2] = refractive index (Na D-line) (dimensionless); details: 101.33 kPa, Liquid, Standard Abbe refractometry
[3] = refractive index (Na D-line) (dimensionless); xn = mol fraction of the nth substance listed; details: 101.3 kPa, Liquid, Standard Abbe refractometry, x2 = 0
[4] = xn = mol fraction of the nth substance listed; details: 101.3 kPa, Liquid, x2 = 0; for speed of sound: Sing-around technique in a fixed-path interferometer; for mass density: Vibrating tube method

| SMILES | speed of sound ([1]; 293.15 K) [m/s] | mass density ([1]; 293.15 K) [kg/m3] | speed of sound ([1]; 303.15 K) [m/s] | mass density ([1]; 303.15 K) [kg/m3] | speed of sound ([1]; 313.15 K) [m/s] | mass density ([1]; 313.15 K) [kg/m3] | speed of sound ([1]; 323.15 K) [m/s] | mass density ([1]; 323.15 K) [kg/m3] | speed of sound ([1]; 333.15 K) [m/s] | mass density ([1]; 333.15 K) [kg/m3] | speed of sound ([1]; 343.15 K) [m/s] | mass density ([1]; 343.15 K) [kg/m3] | refractive index ([2]; 293.15 K) | refractive index ([2]; 303.15 K) | refractive index ([2]; 313.15 K) | refractive index ([2]; 323.15 K) | refractive index ([2]; 333.15 K) | refractive index ([2]; 343.15 K) | further results |
| --- | --- | --- | --- | --- | --- | --- | --- | --- | --- | --- | --- | --- | --- | --- | --- | --- | --- | --- | --- |
| c1ccc2c(c1)CCCC2 [1,2,3,4-tetrahydronaphthalene] | 1489.5 ± 1.3 | 969.52 ± 0.23 | 1450.1 ± 1.2 | 961.59 ± 0.23 | 1411.5 ± 1.2 | 953.66 ± 0.23 | 1373.6 ± 1.2 | 945.72 ± 0.23 | 1336.4 ± 1.2 | 937.77 ± 0.23 | 1299.8 ± 1.2 | 929.8 ± 0.23 | 1.54155 ± 0.00037 | 1.53687 ± 0.00037 | 1.53216 ± 0.00037 | 1.52752 ± 0.00037 | 1.52274 ± 0.00037 | 1.51795 ± 0.00037 |  |
| CCCCCCCCCCCC [dodecane] | 1297.9 ± 1.2 | 748.92 ± 0.24 | 1259.5 ± 1.2 | 741.66 ± 0.24 | 1221.6 ± 1.2 | 734.38 ± 0.24 | 1184.4 ± 1.2 | 727.07 ± 0.24 | 1147.8 ± 1.2 | 719.73 ± 0.24 | 1111.8 ± 1.2 | 712.34 ± 0.25 | 1.42218 ± 0.00037 | 1.41784 ± 0.00037 | 1.41346 ± 0.00037 | 1.40914 ± 0.00037 | 1.40479 ± 0.00037 | 1.40018 ± 0.00037 |  |
| CCCCCCCCCCCC [dodecane] + c1ccc2c(c1)CCCC2 |  |  |  |  |  |  |  |  |  |  |  |  |  |  |  |  |  |  | refractive index ([3]; 293.15 K): 1.42218 ± 0.00037; refractive index ([3]; 303.15 K): 1.41784 ± 0.00037; refractive index ([3]; 313.15 K): 1.41346 ± 0.00037; refractive index ([3]; 323.15 K): 1.40914 ± 0.00037; refractive index ([3]; 333.15 K): 1.40479 ± 0.00037; refractive index ([3]; 343.15 K): 1.40018 ± 0.00037; speed of sound ([4]; 293.15 K): 1297.9 ± 1.2 m/s; mass density ([4]; 293.15 K): 748.92 ± 0.24 kg/m3; speed of sound ([4]; 303.15 K): 1259.5 ± 1.2 m/s; mass density ([4]; 303.15 K): 741.66 ± 0.24 kg/m3; speed of sound ([4]; 313.15 K): 1221.6 ± 1.2 m/s; mass density ([4]; 313.15 K): 734.38 ± 0.24 kg/m3; speed of sound ([4]; 323.15 K): 1184.4 ± 1.2 m/s; mass density ([4]; 323.15 K): 727.07 ± 0.24 kg/m3; speed of sound ([4]; 333.15 K): 1147.8 ± 1.2 m/s; mass density ([4]; 333.15 K): 719.73 ± 0.24 kg/m3; speed of sound ([4]; 343.15 K): 1111.8 ± 1.2 m/s; mass density ([4]; 343.15 K): 712.34 ± 0.25 kg/m3 |
